The results in this text go back to patent US20110152166A1, “METHOD OF MODULATION OF PROTEIN PHOSPHORYLATION-DEPENDENT CONFORMATIONAL TRANSITIONS WITH LOW MOLECULAR WEIGHT COMPOUNDS” (priority 2006, published 2011).

In experiment [1] the test system is GST-S6K11-365. Description: Surface plasmon resonance, S6K1 binding to tail peptides. Also noted: species or system rat. The note with it: K144N versus wt. How it is done:
FIG. 13. The tail phosphate synergistically enhances the ability of the HM phosphate to activate S6K, dependent on the tail phosphate-binding site. (A) The kinase activity of purified kinase domain of S6K1 (S6K11-364), pre-phosphorylated by PDK1 in the activation loop, was determined in the presence of increasing concentrations of synthetic S6K1 tail peptide (residues 366-395) that was either non-phosphorylated (S371/T389), phosphorylated at Ser371 (pS371/T389) or Thr389 (5371/pT389) or phosphorylated at both sites (pS371/pT389). (B) The kinase activity of S6K11-364 and S6K11-364K144N, either pre-phosphorylated or not by PDK1, was determined in the absence or presence of 90 μM S371/pT389 or pS371/pT389. (C) pS371/pT389 S6K1 tail peptide was biotinylated and used to coat streptavidin Sensor Chips. The chips were thereafter analyzed for binding to purified GST-S6K11-365 or GST-56K11-365K144N. (A-C) Experiments were repeated at least 3 times and activity data (expressed as percent) are means±SD.
Sixty 146 cm^2 dishes with COST cells were co-transfected with pEBG-2T-S6K1-365 and pCMV5-myc-PDK1 (ratio 3:1) using calcium phosphate precipitation or with pEBG-2T-PKCζ and pCMV5-myc-PDK1 (ratio 3:1) using Fugene HD according to the manufacturers Instructions. Two days after transfection, the cells were harvested in lysis buffer as described above. […]
For orientation: Surface plasmon resonance follows binding to a sensor surface in real time, without labels.

In experiment [2] the target is T1, Thr221-phosphorylated S6K11-364 (Rattus norvegicus, UniProt P67999).
T1 construct: Purified HA-S6K1-364 was incubated with synthetic S6K1 (rat) tail peptides; made in house; host or cells: COS7, co-transfected with myc-PDK1; anti-HA immunoprecipitate
T1 sequence (P67999 24-387): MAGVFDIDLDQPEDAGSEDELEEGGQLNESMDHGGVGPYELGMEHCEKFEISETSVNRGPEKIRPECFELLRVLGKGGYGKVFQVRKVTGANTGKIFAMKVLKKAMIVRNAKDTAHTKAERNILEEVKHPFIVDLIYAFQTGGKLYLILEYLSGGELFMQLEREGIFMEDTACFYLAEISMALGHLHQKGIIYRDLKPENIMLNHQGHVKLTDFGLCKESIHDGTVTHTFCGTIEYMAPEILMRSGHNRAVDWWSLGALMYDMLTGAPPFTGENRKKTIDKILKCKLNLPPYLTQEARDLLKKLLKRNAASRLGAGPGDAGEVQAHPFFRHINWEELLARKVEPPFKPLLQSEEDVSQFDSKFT
Description: S6K1 in vitro reconstitution kinase assay with tail peptides. The experiment is classed as biochemical. From the text:
We established an in vitro reconstitution assay that could test a direct activation of the AGC kinase domain by the tail phosphate and characterize its cooperation with the HM and activation loop phosphates. The deletion mutant S6K11-364, which contains the kinase domain, but lacks the region of the tail containing the tail site and the HM as well as the C-terminal autoinhibitory domain, was expressed and purified from COS7 cells, either non-phosphorylated or phosphorylated at T221 in the activation loop, achieved by co-expression with PDK1. Purified S6K11-364 was then incubated with synthetic peptides of the S6K1 tail (residues 366-395: QTPVDS^371PDDSTLSESANQVFLGFT^389YVAPSV), which were either non-phosphorylated (S371/T389), phosphorylated at the tail site (pS371/T389), phosphorylated in the HM (S371/pT389) or phosphorylated at both sites (pS371/pT389). Subsequently, the kinase activity of S6K11-364 was determined.
Kinase assays for PKB, RSK, S6K, MSK were done as described previously (Frodin et al., 2002). […] After washing with 150 mM orthophosphoric acid, [^32P]phosphate incorporated into peptide substrate was quantified in an FLA-3000 apparatus (Fujifilm). […]

“pS371/T389: synthetic S6K1 tail peptide (residues 366-395) phosphorylated at the tail site”: in experiment [1], the “decrease of binding of S6K11-365 to peptide by the K144N mutation” value is recorded as “about 40%”. Besides, the “stimulation of kinase activity (in words)” value in experiment [2] was “did not stimulate”.
